Experimental data reported in ChEMBL document CHEMBL6092149, “Discovery of 1(2H)-phthalazinone and 1(2H)-isoquinolinone derivatives as potent hematopoietic progenitor kinase 1 (HPK1) inhibitors” (Eur J Med Chem, 2024).

How the values were obtained:
[1] = target: Mitogen-activated protein kinase kinase kinase 1 (Homo sapiens) (UniProt Q13233); experiment: Inhibition of MAP3K1 (unknown origin) at 1000 nM incubated for 1 hrs by active site-directed competition binding assay relative to control; values are per cent of control
[2] = target: Mitogen-activated protein kinase kinase kinase kinase 1 (Mus musculus) (UniProt P70218); experiment: In vivo inhibition of HPK1 in female BALB/c mouse assessed as reduction in SLP76 phosphorylation in spleen at 100 mg/kg qd, ip and measured after 24 hrs post dosing by Western blot analysis relative to control; format: functional, organism-based
Sequence of Mitogen-activated protein kinase kinase kinase kinase 1 (Mus musculus) (P70218 whole entry): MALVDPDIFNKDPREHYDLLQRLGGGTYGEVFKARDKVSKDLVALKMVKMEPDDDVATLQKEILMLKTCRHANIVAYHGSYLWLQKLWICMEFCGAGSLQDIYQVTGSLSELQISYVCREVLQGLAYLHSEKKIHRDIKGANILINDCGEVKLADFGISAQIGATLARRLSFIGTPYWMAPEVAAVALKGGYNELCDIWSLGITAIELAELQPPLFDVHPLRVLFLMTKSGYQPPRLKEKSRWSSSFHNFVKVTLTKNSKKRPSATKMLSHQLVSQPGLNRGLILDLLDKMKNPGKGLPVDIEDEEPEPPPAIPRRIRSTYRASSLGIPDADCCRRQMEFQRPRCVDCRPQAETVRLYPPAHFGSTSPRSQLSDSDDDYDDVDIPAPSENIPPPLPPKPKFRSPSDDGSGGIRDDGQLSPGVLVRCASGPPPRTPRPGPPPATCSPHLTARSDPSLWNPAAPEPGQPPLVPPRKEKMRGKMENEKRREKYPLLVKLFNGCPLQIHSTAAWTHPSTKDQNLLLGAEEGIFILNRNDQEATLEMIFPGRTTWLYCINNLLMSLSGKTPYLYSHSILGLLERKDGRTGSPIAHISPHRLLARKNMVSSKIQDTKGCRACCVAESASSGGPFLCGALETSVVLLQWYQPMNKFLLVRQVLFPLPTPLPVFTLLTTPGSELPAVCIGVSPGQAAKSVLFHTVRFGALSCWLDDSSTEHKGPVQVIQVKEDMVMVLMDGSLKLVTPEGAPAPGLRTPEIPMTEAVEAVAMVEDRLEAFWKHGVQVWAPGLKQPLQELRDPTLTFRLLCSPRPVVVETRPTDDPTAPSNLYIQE

[3] = Cmax in overnight fasted rat at 10 mg/kg, po; format: ADME, organism-based; conditions: in vivo
[4] = target: Tyrosine-protein kinase Lck (Homo sapiens) (UniProt P06239); experiment: Inhibition of LCK (unknown origin) at 1000 nM incubated for 1 hrs by active site-directed competition binding assay relative to control; values are per cent of control
Sequence of Tyrosine-protein kinase Lck (Homo sapiens) (P06239 2-509 limits assumed): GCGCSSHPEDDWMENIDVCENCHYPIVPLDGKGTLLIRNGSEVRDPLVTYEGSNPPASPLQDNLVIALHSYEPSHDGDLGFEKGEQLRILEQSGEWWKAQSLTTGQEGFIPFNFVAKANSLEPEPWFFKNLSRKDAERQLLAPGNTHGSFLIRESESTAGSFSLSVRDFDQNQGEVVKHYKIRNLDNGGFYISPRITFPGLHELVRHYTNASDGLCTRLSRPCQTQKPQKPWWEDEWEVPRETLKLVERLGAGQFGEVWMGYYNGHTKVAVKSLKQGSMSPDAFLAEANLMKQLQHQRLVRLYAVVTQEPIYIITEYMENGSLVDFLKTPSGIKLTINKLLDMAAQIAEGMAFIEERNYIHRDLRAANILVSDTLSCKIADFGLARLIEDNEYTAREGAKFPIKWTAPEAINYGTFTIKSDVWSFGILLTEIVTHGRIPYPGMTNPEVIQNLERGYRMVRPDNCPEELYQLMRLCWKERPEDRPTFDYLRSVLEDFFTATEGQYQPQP

[5] = Toxicity against BALB/c mouse allografted with mouse CT26 cells assessed as body weight loss at 30 mg/kg, administered orally twice daily for 2 weeks; format: organism-based; conditions: in vivo, po, 336 h
[6] = target: Mitogen-activated protein kinase kinase kinase kinase 5 (Homo sapiens, UniProt Q9Y4K4); experiment: Inhibition of GST-tagged recombinant human full length MAP4K5 expressed in insect cells preincubated for 10 min followed by fluorescein PKC and ATP addition and measured after 90 min by Envision2104 Multilabel Reader analysis; set-up: species or system Insect cell
[7] = Half life in overnight fasted mouse at 1 mg/kg, iv; format: ADME, organism-based; conditions: in vivo
[8] = target: Mitogen-activated protein kinase 11 (Homo sapiens) (UniProt Q15759); experiment: Inhibition of P38beta (unknown origin) at 1000 nM incubated for 1 hrs by active site-directed competition binding assay relative to control
[9] = Oral bioavailability in in overnight fasted mouse at 10 mg/kg; format: ADME, organism-based; conditions: in vivo
[10] = Oral bioavailability in in overnight fasted rat at 10 mg/kg; format: ADME, organism-based; conditions: in vivo
[11] = Cmax in overnight fasted mouse at 10 mg/kg, po; format: ADME, organism-based; conditions: in vivo
[12] = Plasma clearance in overnight fasted mouse at 1 mg/kg, iv; format: ADME, organism-based
[13] = Plasma Clearance in overnight fasted rat at 1 mg/kg, iv; format: ADME, organism-based
Homo sapiens = species on record: Homo sapiens; experiment: Inhibition of TAK1 (unknown origin) at 1000 nM incubated for 1 hrs by active site-directed competition binding assay relative to control
[14] = target: Mitogen-activated protein kinase kinase kinase kinase 1 (Homo sapiens, UniProt Q92918); experiment: Inhibition of HPK1 in human T cells assessed as increase in IL-2 secretion measured after 24 hrs by ELISA method; format: cell-based, T-cell
[15] = target: Mitogen-activated protein kinase kinase kinase kinase 1 (Mus musculus) (UniProt P70218); experiment: In vivo inhibition of HPK1 in female BALB/c mouse assessed as reduction in SLP76 phosphorylation in spleen at 100 mg/kg qd, ip and measured after 3 hrs post dosing by Western blot analysis relative to control; format: functional, organism-based
[16] = target: Calcium/calmodulin-dependent protein kinase type IV (Homo sapiens) (UniProt Q16566); experiment: Inhibition of CAMK4 (unknown origin) at 1000 nM incubated for 1 hrs by active site-directed competition binding assay relative to control; values are per cent of control
[17] = Half life in overnight fasted rat at 1 mg/kg, iv; format: ADME, organism-based; conditions: in vivo
[18] = target: Tyrosine-protein kinase ZAP-70 (Homo sapiens) (UniProt P43403); experiment: Inhibition of ZAP70 (unknown origin) at 1000 nM incubated for 1 hrs by active site-directed competition binding assay relative to control
Sequence of Tyrosine-protein kinase ZAP-70 (Homo sapiens) (P43403 whole entry): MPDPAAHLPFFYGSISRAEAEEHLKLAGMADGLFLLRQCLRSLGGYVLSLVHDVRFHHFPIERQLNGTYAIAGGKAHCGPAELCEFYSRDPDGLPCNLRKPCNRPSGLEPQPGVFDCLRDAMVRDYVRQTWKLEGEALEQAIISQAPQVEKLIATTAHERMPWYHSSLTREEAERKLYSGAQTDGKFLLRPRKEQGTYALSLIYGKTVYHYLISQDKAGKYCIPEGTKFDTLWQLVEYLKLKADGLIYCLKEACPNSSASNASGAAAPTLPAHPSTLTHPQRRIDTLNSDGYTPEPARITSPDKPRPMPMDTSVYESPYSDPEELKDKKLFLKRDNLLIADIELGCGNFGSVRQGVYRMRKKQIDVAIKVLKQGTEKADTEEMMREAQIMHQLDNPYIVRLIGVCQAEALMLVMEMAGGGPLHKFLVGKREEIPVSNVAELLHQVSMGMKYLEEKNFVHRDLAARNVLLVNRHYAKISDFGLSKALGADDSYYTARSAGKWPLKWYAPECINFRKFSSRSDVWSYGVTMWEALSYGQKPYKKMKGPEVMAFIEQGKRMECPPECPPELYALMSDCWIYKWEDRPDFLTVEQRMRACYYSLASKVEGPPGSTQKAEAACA

[19] = Toxicity in CD-1 mouse assessed as body weight loss at 1000 mg/kg, po; format: organism-based; conditions: in vivo
CT26 [20] = experiment: Antitumor activity against mouse CT26 cells allografted in female BALB/c mouse assessed as tumor growth inhibition at 3 mg/kg, ip administered twice daily and measured on 13 day in presence of presence of anti-PD-1 relative to control; format: functional; conditions: CT26, 312 h, read-out: TGI
[21] = target: Mitogen-activated protein kinase kinase kinase kinase 4 (Homo sapiens, UniProt O95819); experiment: Inhibition of N-terminal GST-tagged recombinant human MAP4K4 (1 to 328 residues) expressed in Sf21 insect cells preincubated for 10 min followed by fluorescein PKC and ATP addition and measured after 90 min by Envision2104 Multilabel Reader analysis
CT26 [22] = experiment: Antitumor activity against mouse CT26 cells allografted in female BALB/c mouse assessed as tumor growth inhibition at 30 mg/kg, administered orally twice daily for 2 weeks; format: functional; conditions: CT26, 336 h, route po, read-out: TGI
Misshapen-like kinase 1 = Misshapen-like kinase 1 (Homo sapiens, UniProt Q8N4C8); experiment: Inhibition of N-terminal GST-tagged recombinant human MAP4K6 (7 to 139 residues) expressed in Sf21 insect cells preincubated for 10 min followed by fluorescein PKC and ATP addition and measured after 90 min by Envision2104 Multilabel Reader analysis
[23] = target: Inhibitor of nuclear factor kappa-B kinase subunit beta (Homo sapiens) (UniProt O14920); experiment: Inhibition of IKKbeta (unknown origin) at 1000 nM incubated for 1 hrs by active site-directed competition binding assay relative to control
Sequence of Inhibitor of nuclear factor kappa-B kinase subunit beta (Homo sapiens) (O14920 whole entry): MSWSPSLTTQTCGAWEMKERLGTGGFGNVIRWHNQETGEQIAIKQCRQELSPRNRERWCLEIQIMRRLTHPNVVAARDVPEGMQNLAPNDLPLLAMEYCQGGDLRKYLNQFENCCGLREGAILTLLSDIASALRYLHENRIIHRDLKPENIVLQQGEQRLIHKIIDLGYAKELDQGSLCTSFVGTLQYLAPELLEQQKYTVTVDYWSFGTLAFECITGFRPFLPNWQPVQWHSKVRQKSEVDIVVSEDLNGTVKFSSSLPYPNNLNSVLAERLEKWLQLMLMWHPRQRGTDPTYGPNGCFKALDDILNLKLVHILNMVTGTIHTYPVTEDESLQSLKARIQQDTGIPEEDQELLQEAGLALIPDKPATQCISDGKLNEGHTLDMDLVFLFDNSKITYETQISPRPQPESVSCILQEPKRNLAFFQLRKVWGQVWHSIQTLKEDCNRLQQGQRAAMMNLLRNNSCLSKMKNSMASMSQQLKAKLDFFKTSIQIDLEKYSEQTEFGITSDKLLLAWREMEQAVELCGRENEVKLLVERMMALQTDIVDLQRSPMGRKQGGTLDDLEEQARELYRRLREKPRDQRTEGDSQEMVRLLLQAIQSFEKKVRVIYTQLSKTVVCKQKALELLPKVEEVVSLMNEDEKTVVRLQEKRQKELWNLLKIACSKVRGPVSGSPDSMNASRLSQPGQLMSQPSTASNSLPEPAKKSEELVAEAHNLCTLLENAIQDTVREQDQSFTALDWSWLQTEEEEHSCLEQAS

[24] = target: Mitogen-activated protein kinase 14 (Homo sapiens) (UniProt Q16539); experiment: Inhibition of P38alpha (unknown origin) at 1000 nM incubated for 1 hrs by active site-directed competition binding assay relative to control
Sequence of Mitogen-activated protein kinase 14 (Homo sapiens) (Q16539 whole entry, the tested form may be a part): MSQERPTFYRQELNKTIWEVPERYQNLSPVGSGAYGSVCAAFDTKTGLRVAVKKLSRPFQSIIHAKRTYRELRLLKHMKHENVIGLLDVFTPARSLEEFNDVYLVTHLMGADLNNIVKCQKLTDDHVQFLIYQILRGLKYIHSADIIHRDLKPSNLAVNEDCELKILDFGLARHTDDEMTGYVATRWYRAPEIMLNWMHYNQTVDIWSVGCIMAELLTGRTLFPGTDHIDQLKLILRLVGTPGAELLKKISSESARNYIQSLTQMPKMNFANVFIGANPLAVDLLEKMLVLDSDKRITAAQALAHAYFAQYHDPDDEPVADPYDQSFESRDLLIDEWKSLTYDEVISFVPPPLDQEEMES

[25] = target: Mitogen-activated protein kinase kinase kinase kinase 2 (Homo sapiens, UniProt Q12851); experiment: Inhibition of N-terminal GST tagged recombinant human MAP4K2 (1 to 820 residues) expressed in Sf21 insect cells preincubated for 10 min followed by fluorescein PKC and ATP addition and measured after 90 min by Envision2104 Multilabel Reader analysis
Sequence of Mitogen-activated protein kinase kinase kinase kinase 2 (Q12851 whole entry, the tested form may be a part): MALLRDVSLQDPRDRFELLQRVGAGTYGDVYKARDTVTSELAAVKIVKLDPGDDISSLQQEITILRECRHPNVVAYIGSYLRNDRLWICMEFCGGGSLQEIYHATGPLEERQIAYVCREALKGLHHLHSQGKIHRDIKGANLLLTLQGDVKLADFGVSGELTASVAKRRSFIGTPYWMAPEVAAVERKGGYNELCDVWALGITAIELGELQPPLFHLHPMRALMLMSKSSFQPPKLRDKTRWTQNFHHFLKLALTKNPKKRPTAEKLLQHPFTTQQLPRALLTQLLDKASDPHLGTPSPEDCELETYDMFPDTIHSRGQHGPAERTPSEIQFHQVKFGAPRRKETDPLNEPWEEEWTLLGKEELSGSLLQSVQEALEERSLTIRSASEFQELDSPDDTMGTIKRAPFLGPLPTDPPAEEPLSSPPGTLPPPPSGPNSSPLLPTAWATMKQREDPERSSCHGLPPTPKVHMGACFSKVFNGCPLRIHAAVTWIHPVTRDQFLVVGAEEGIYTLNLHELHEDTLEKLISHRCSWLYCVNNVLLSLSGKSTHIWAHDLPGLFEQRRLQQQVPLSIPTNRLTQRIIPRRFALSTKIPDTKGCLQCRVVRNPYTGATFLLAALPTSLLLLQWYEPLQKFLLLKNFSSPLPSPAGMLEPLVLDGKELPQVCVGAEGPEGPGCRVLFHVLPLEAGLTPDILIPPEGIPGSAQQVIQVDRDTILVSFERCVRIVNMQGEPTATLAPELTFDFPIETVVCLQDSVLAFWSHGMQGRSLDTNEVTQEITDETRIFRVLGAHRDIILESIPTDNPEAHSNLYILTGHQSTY

[26] = target: Mitogen-activated protein kinase 1 (Homo sapiens) (UniProt P28482); experiment: Inhibition of ERK2 (unknown origin) at 1000 nM incubated for 1 hrs by active site-directed competition binding assay relative to control
Sequence of Mitogen-activated protein kinase 1 (Homo sapiens) (P28482 whole entry): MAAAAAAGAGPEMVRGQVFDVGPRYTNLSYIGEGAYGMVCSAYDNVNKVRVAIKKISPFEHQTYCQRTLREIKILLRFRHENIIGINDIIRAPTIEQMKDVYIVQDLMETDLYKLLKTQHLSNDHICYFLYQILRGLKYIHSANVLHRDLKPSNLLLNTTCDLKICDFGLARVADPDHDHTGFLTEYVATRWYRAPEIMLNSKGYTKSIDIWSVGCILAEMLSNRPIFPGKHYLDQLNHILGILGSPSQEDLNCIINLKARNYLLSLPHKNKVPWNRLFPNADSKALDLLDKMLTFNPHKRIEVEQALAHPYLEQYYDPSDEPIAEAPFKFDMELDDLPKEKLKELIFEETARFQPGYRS

[27] = target: Mitogen-activated protein kinase 13 (Homo sapiens) (UniProt O15264); experiment: Inhibition of P38delta (unknown origin) at 1000 nM incubated for 1 hrs by active site-directed competition binding assay relative to control
Sequence of Mitogen-activated protein kinase 13 (Homo sapiens) (O15264 whole entry): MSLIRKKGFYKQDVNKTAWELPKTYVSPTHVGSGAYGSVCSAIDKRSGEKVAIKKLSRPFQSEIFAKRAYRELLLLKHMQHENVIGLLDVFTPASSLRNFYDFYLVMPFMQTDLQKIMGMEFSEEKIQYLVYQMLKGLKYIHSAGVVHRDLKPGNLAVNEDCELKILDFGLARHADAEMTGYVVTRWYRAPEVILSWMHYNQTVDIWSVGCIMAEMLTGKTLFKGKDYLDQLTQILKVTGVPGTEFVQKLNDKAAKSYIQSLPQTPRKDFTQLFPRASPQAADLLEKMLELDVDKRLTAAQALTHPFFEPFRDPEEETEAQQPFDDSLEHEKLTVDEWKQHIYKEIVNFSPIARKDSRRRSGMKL

[28] = target: Mitogen-activated protein kinase 9 (Homo sapiens) (UniProt P45984); experiment: Inhibition of JNK2 (unknown origin) at 1000 nM incubated for 1 hrs by active site-directed competition binding assay relative to control
[29] = Inhibition of N-terminal His-tagged recombinant human TAK1(1 to 303 residues) expressed in Sf21 insect cells preincubated for 10 min followed by inactive MEK1 and ATP addition and measured after 90 min by Envision2104 Multilabel Reader analysis
[30] = target: Mitogen-activated protein kinase 12 (Homo sapiens) (UniProt P53778); experiment: Inhibition of P38gamma (unknown origin) at 1000 nM incubated for 1 hrs by active site-directed competition binding assay relative to control
Sequence of Mitogen-activated protein kinase 12 (Homo sapiens) (P53778 whole entry): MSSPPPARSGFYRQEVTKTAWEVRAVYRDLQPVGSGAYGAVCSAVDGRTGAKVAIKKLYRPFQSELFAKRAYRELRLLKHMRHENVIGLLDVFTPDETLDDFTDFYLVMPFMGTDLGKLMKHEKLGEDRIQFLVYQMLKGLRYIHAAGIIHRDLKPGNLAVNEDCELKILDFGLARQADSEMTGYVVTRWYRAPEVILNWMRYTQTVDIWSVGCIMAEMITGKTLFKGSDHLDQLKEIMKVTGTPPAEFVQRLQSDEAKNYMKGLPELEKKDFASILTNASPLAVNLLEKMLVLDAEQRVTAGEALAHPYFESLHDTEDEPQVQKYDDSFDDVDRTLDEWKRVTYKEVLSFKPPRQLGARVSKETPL

[31] = Toxicity against BALB/c mouse […] with mouse CT26 cells assessed as body weight loss at 3 mg/kg, ip administered twice daily and measured on 13 day in presence of presence of anti-PD-1; format: organism-based; conditions: in vivo, 312 h

In the case of `O=c1[nH]ccc2c(-c3cnc4cc(F)ccn34)ccc(Nc3ccc(C4CCOCC4)c(CN4CC[C@H](F)C4)n3)c12`, the percent of control [1] is reported as 100%, the inhibition [2] is reported as 50% and the Cmax [3] is reported as 518 ng/mL. The percent of control [4] was 100%, the Activity [5] was “Non-toxic” and the IC50 [6] was 104 nM. It also gave a half-life [7] of 36 min, an inhibition [8] of 84% and a bioavailability [9] of 116%. For the same compound, the bioavailability [10] was 80%, the Cmax [11] was 1800 ng/mL and the clearance [12] was 46 mL/min/kg. For the same compound, the clearance [13] was 67 mL/min/kg, the inhibition (Homo sapiens) was 1.5% and the EC50 [14] was 108 nM. The Activity ([14]; T-cell) was “Dose-dependent-effect”, the inhibition [15] was 100% and the percent of control [16] was 100%. The half-life [17] was 48 min, the inhibition [18] was 90% and the Activity [19] was “Non-toxic”. The inhibition in vivo at 3 mg/kg (CT26 [20]) was 95%, the IC50 [21] was 665 nM and the inhibition in vivo at 30 mg/kg (CT26 [22]) was 42%. It also gave an IC50 (Misshapen-like kinase 1) of 168 nM, an inhibition [23] of 93% and an inhibition [24] of 94%. For the same compound, the IC50 [25] was 448 nM, the inhibition [26] was 69% and the inhibition [27] was 62%. It also gave an inhibition [28] of 86%, an IC50 [29] of 4.74 µM and an inhibition [30] of 36%. The Activity [31] was “Non-toxic”.
